Reference: US6444806B1, “Conjugates and methods of forming conjugates of oligonucleotides and carbohydrates” (Hisamitsu Pharmaceutical Co., Inc., priority 1996, dated 2002)
{Sucrose} = sucrose through a 1,5-bis(succinimidooxycarbonyloxy)pentane crosslinker

How the values were obtained:
[1] = Nuclease degradation assay in heat-inactivated 10% fetal bovine serum; format: in vitro ADME; settings: phosphodiester oligonucleotides, up to 24 hours at 37° C. (FIG. 4)
Description: (§1) Electrophoresis was performed using 20% polyacrylamide gels containing […], 90 mM Tris-borate (pH 8.3), 2 mM EDTA, 0.02% ammonium persulfate, and 15 μl tetraethylediamine (TEMED). Samples were dissolved in gel-loading buffer (10 M urea, 1.5 mM EDTA, 0.05% xylene cyanol, and 0.05% bromophenol blue) and heated at 90° C. for 1 minute and chilled before application to polyacrylamide gels.
Radiolabeled oligonucleotide (30,000 CPM) was incubated in RPMI-1640 medium (GIBCO-BRL, Grand Island, N.Y.) containing 10% heat-inactivated fetal bovine serum at 37° C. Samples were removed at various times, mixed with gel-loading buffer, and frozen at −20 C. Samples were analyzed by polyacrylamide gel electrophoresis followed by autoradiography of the wet gel at −70° C.

[2] = target: T1, Exonuclease-1 (Escherichia coli, UniProt P04995); format: in vitro ADME; settings: 0.5 or 1.0 unit Exonuclease-1, 30 minutes at 37° C., gel autoradiography (FIG. 3)
T1 sequence (P04995 1-475): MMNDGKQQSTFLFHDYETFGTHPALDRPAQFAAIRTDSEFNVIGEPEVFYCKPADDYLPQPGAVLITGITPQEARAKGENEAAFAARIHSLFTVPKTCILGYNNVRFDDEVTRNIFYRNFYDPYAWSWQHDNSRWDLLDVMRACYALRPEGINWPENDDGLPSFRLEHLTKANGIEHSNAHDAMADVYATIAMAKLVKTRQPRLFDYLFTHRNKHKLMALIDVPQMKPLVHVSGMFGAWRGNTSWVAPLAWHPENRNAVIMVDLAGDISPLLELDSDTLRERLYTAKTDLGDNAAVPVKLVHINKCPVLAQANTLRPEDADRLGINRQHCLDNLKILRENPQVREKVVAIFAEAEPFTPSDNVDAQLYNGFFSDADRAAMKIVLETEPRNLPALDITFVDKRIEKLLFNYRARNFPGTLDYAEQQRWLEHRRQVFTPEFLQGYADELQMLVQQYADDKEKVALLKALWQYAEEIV
Description: as §1
Radiolabeled oligonucleotide (30,000 CPM) was incubated with either 0.5 or 1.0 unit of Exonuclease-1 in 67 mM glycine (pH 9.5), 10 mM 2-mercaptoethanol, and 6.7 mM MgCl2 in 20 μl for 30 minutes at 37° C. After incubation, 5 μl of gel-loading buffer were added. All reactions were analyzed by polyacrylamide gel electrophoresis followed by autoradiography of the wet gel at −70° C.

[3] = tested on: RNA complementary to the oligonucleotide; assay: RNase H assay (RNA-DNA heteroduplex formation); format: biochemical; settings: Escherichia coli RNase H, 10 or 30 minutes, room temperature (FIG. 6)
Description: Radiolabeled oligonucleotide (30,000 CPM) was annealed to complementary RNA by incubation in 20 mM Tris-HCl (pH 7.5), 0.1 M KCl, 10 mM MgCl2, and 0.1 mM ATP in 10 μl for 5 minutes at 65° C. followed by slow cooling to room temperature. One unit of Escherichia coli RNase H was added and incubation at room temperature was continued for either 10 minutes or 30 minutes. After incubation, 5 μl of gel-loading buffer were added, and all samples were analyzed by polyacrylamide gel electrophoresis followed by autoradiography of the wet gel at −70° C.
Unconjugated and sucrose-conjugated phosphodiester and phosphorothioate oligonucleotides were tested for their ability to form stable RNA-DNA heteroduplexes by determining RNA susceptibility to degradation by RNase H. RNA complementary to the oligonucleotide was labeled at the 5′-end using γ-^32P-ATP and T4 polynucleotide kinase. Radiolabeled RNA was hybridized to either unconjugated phosphodiester, sucrose-conjugated phosphodiester, unconjugated phosphorothioate, or sucrose-conjugated phosphorothioate oligonucleotide. Heteroduplex formation was assayed by incubation with RNase H for either 10 minutes or 30 minutes.

Substance	degradation in heat-inactivated 10% fetal bovine serum [1]	degradation by Exonuclease-1 [2]	RNA susceptibility to degradation by RNase H (stable RNA-DNA heteroduplex formation) [3]
sucrose-conjugated phosphodiester oligonucleotide: 19-mer phosphodiester oligonucleotide (Sequence ID No. 1) coupled at 3′-end to sucrose via crosslinker 1,5-bis(succinimidooxycarbonyloxy)pentane (GCTTCTGTGCTCATGGTCT; all phosphodiester, 3' {Sucrose}, sugars by position and methylation of C not given here; further chemistry not fully specified)	relatively resistant to degradation	only negligible degradation	degraded by RNase H
unconjugated phosphodiester oligonucleotide: phosphodiester oligonucleotide, 19 nucleotides in length, sequence of Sequence ID No. 1, unconjugated control (GCTTCTGTGCTCATGGTCT; all phosphodiester, sugars by position and methylation of C not given here)	highly susceptible to degradation	degraded nearly completely	degraded by RNase H
